Assay results taken from US20070218491A1, “Oligomerization of amyloid proteins” (Oligomerix, Inc., priority 2006, published 2007).
Read-outs that look alike come from different tables or passages of the source. One block for each compound: values may come before it.

Experiments:
[1] = molecular target: T1, human islet amyloid polypeptide (Homo sapiens, UniProt P10997); conditions: cited from earlier work
T1 sequence (P10997 34-70 limits assumed): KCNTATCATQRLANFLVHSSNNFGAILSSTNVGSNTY

[2] = molecular target: tau (Homo sapiens, UniProt P10636); test: Screening compounds for inhibition of RNA-facilitated tau oligomer formation (modified ELISA); type: biochemical; conditions: incubations with RQ11+12 RNA polyanion; FIG. 14
tau, sequence (P10636 1-412 isoform P10636-7): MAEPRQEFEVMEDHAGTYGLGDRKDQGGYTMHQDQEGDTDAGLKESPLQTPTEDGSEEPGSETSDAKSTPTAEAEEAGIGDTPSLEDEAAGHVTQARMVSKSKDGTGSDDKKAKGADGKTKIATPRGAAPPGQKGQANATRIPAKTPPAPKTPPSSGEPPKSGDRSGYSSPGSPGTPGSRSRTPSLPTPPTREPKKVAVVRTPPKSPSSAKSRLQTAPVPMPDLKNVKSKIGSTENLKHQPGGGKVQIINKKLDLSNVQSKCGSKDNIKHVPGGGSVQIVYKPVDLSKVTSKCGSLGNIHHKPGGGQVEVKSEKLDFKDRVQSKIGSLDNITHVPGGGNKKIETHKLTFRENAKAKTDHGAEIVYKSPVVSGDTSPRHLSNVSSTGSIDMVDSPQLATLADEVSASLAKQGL
Procedure: RNA polyanion was used to facilitate oligomer formation of tau protein in vitro using the following, preferred, conditions: 20 pmoles of tau412 was reacted with 4 pmoles of a 197 base RNA, i.e., RQ11+12, in 50 mM Tris-HCl buffer at pH of 7.4 and incubated for 1 hour at 37° C. […] The 5:1 ratio was optimal for the RNA RQT157 as well (FIG. 15). […] The kinetics of oligomer formation was rapid. […] Physiological pH and temperature were used in the assay to simulate biological conditions.
Formation of tau oligomers was analyzed using two different ELISA methods to provide verified data. The “modified” ELISA uses the same monoclonal antibody for capture and detection. Insoluble aggregates are removed in the ELISA procedure during washing steps. Only soluble aggregates of tau, not monomers, are detected with this ELISA because the detection and reporter antibody recognizes an epitope which is present only once within tau. At least one more tau molecule must be present in the complex for detection with the same antibody (method illustrated in FIG. 7). The modified ELISA used is similar to the modified ELISA previously used for identification of Aβ oligomers (Sian et al., Biochem. J. 349(Pt 1):299-308 2000)) and PrP oligomers (Vasan et al., Neurochem Res 31(5):629-37(2006)). […]

[3] = molecular target: tau412 (Homo sapiens, UniProt P10636); test: Polyanion-facilitated tau412 oligomer formation detected by ELISA (modified, A11, DC11); type: biochemical; conditions: for facilitation of tau412 oligomer formation by heparin or DNA: modified ELISA, FIGS. 13 and 16
tau412, sequence (P10636 1-412 isoform P10636-7): as above
Procedure: The 5:1 ratio was optimal for the RNA RQT157 as well (FIG. 15). […] The kinetics of oligomer formation was rapid. […] Physiological pH and temperature were used in the assay to simulate biological conditions. Formation of tau oligomers was analyzed using two different ELISA methods to provide verified data. The “modified” ELISA uses the same monoclonal antibody for capture and detection. Insoluble aggregates are removed in the ELISA procedure during washing steps. Only soluble aggregates of tau, not monomers, are detected with this ELISA because the detection and reporter antibody recognizes an epitope which is present only once within tau. At least one more tau molecule must be present in the complex for detection with the same antibody (method illustrated in FIG. 7). The modified ELISA used is similar to the modified ELISA previously used for identification of Aβ oligomers (Sian et al., Biochem. J. 349(Pt 1):299-308 2000)) and PrP oligomers (Vasan et al., Neurochem Res 31(5):629-37(2006)). This assay used antibody MN1000, recognizing tau epitope amino acids 159-163, for capture and biotinylated MN1000 as reporter. […] The second ELISA method to detect oligomers is based on polyclonal antibody A11 which recognizes a common structure in soluble amyloid oligomers (FIGS. 8-10, and 12). (Kayed et al., Science 300: 486-491(2003)). […] This assay was used to optimize the molar ratio of tau:RNA for oligomer formation (FIGS. 8 and 15), follow oligomer formation over time (FIG. 10), show tau oligomer formation with a range of RNAs (FIG. 12), and detect soluble tau oligomers in CSF (FIG. 11). A third ELISA was used to show biological relevance of the tau oligomers formed in this assay to tau in AD and is based on monoclonal antibodies DC11 used for capture and biotinylated MN1000 for reporter. The antibody DC11 recognizes a conformational epitope in tau specific for AD (Vechterova et al., Neuroreport 1:87-91 (2003)). […] Oligomer formation was determined by modified ELISA (described above). […]

Compound: Cc1ccc(C(=O)Nc2ccc(S(=O)(=O)O)c3cc(S(=O)(=O)O)cc(S(=O)(=O)O)c23)cc1NC(=O)c1cccc(NC(=O)Nc2cccc(C(=O)Nc3cc(C(=O)Nc4ccc(S(=O)(=O)O)c5cc(S(=O)(=O)O)cc(S(=O)(=O)O)c45)ccc3C)c2)c1 [Suramin]
effect on amyloid fibril formation ([1]; at high concentrations): stimulated the process
effect on amyloid fibril formation ([1]; at low concentrations): inhibited amyloid fibril formation

Compound: COc1cc(/C=C/C(=O)CC(=O)/C=C/c2ccc(O)c(OC)c2)ccc1O [curcumin]
inhibition of RNA-facilitated tau oligomer formation [2]: inhibition

Compound: Heparin
facilitation of tau412 oligomer formation by heparin or DNA [3]: effective in facilitating tau oligomer formation

The remaining lines, values ahead:

facilitation of tau412 oligomer formation by heparin or DNA [3]: enhanced tau412 oligomer formation
Compound: Polydeoxythymidine

facilitation of tau oligomer formation by RNA ([3]; 5:1 tau:RNA ratio, detected with A11 Ab, FIG. 12): facilitated tau oligomer formation
Compound: polyA
